According to paper PMC9916969 (International Journal of Molecular Sciences, 2023):
Read-outs that look alike come from different tables or passages of the source.

How the values were obtained:
equine serum BChE = biological target: T1, equine serum BChE (Equus caballus, UniProt P81908); assay: biochemical; conditions: mean ± SEM, n = 3, read-out: Inhibitory activity against BChE, IC50
T1 construct: human erythrocyte AChE, equine serum BChE, and porcine liver CES were used; purchased Sigma-Aldrich; host or cells: equine serum (tissue-derived)
Description: (§1) Assessment of the esterase profile of new potential anti-AD molecules enables the estimation of both the primary pharmacological effects of the tested compounds—their inhibition of AChE and BChE—and their possible unwanted side effect—inhibition of CES, which hydrolyzes numerous ester-containing drugs. For the esterase profile evaluation, human erythrocyte AChE, equine serum BChE, and porcine liver CES were used. These sources of BChE and CES were employed because of their relatively low cost, high sequence identity to human enzymes, and the exploratory character of this work.
(§2) Chromophore absorbances were measured with a FLUOStar Optima microplate reader (BMG Labtech, Ortenberg, Germany). […] Initially, we used a single concentration of 20 µM for all compounds.

human erythrocyte AChE = biological target: T2, human erythrocyte AChE (Homo sapiens, UniProt P22303); assay: biochemical; conditions: mean ± SEM, n = 3, read-out: Inhibitory activity against AChE, IC50
T2 construct: human erythrocyte AChE, equine serum BChE, and porcine liver CES were used; purchased Sigma-Aldrich; host or cells: human erythrocytes (tissue-derived)
Description: as §1, §2

porcine liver CES = assay: In vitro CES inhibition (4-NPA substrate); type: biochemical; conditions: compound 20 µM, n.a. = not active
Description: as §1, §2

EeAChE PAS = biological target: T3, EeAChE PAS (Electrophorus electricus, UniProt O42275); type: binding; conditions: compound 20 µM; EeAChE 7 µM; propidium iodide 8 µM
T3 construct: The enzyme was electric eel AChE (EeAChE type VI-S, lyophilized powder, Sigma-Aldrich); purchased Sigma-Aldrich type VI-S; host or cells: electric eel (tissue-derived)
Description: This method is widely used as a screening approach to assess the potential ability of compounds to block AChE-induced β-amyloid aggregation. This is because when the compounds bind to the AChE PAS, they prevent the binding of β-amyloid, thereby inhibiting its aggregation.
The enzyme was electric eel AChE (EeAChE type VI-S, lyophilized powder, Sigma-Aldrich). We selected this source of AChE for consistency with our other reports and because of the purity, specific activity, and lower cost compared to human AChE.
Propidium iodide (final concentration 8 μM) was then added for a further 15 min incubation, and the fluorescence spectrum was taken (530 nm excitation and 600 nm emission) using a FLUOStar Optima microplate reader. The same concentration of propidium iodide in the Tris buffer was used as the blank. Triplicate determinations were recorded and the results were calculated via the following equation:% Displacement = 100 − (IFAChE+ Propidium + inhibitor/IFAChE + Propidium) × 100, where IFAChE + Propidium = fluorescence intensity of propidium iodide associated with AChE in the absence of the test compound (taken as 100%), and IFAChE + Propidium + inhibitor = fluorescence intensity of propidium iodide associated with AChE in the presence of the test compound.

β-amyloid (1–42) (Aβ42) = β-amyloid (1–42) (Aβ42) (Homo sapiens, UniProt P05067); assay: Inhibition of Aβ42 self-aggregation (thioflavin T); type: biochemical; conditions: read-out: Inhibition of Aβ42 Self-Aggregation
Procedure: The inhibitory activity of tested hybrids against the self-aggregation of Aβ42 was determined in vitro using the thioflavin T (ThT) fluorimetric assay. According to [84], the ThT test is ideal for preliminary screening of inhibitors of Aβ42 self-aggregation, as it enables the quantitative testing of large numbers of compounds within a relatively short time.
The influence of the inhibitory effect of the test compounds toward Aβ42 self-aggregation was determined using the thioflavin T (ThT) fluorescence method with minor modifications. This assay is based on a specific interaction between the fluorescent dye thioflavin T that binds to the β-sheets of assembled amyloid fibrils leading to a significant increase in fluorescence signal. Therefore, the decrease in ThT fluorescence correlates with the ability of the studied compounds to inhibit the formation of amyloid aggregates.
One mg of lyophilized HFIP-pretreated Aβ42 from BACHEM (Bubendorf, Switzerland) was dissolved in DMSO to obtain a stable initial solution ([Aβ42] = 500 μM); then it was aliquoted and stored at −20 °C.
For the measurement of Aβ42 self-aggregation and amyloid fibril inhibition studies by the tested compounds, aliquots of 500 μM Aβ42 stock solution were diluted in 215 mM Na-phosphate buffer pH = 8.0 to a final concentration of 50 μM Aβ42. Then the samples were incubated for 24 h at 37 °C without stirring in the absence (base level of Aβ42 self-aggregation, control) or presence of the test compounds. Myricetin and propidium iodide were used as reference compounds (positive controls). All compounds were used in a concentration of 100 µM. To quantify Aβ42 fibril formation, after incubation, 5 μM ThT in 50 mM glycine-NaOH buffer pH 8.5 was added to the solutions to a final concentration of 4 μM ThT and the fluorescence was measured at 440 nm (excitation) and 485 nm (emission). Analyses were performed with a FLUOStar Optima microplate reader (LabTech, Ortenberg, Germany). The blanks consisted of 215 mM Na-phosphate buffer, pH = 8.0, 20% (v/v) DMSO or test compounds, respectively. Each assay was run in triplicate.

FRAP assay = conditions: Trolox equivalents; 60 min, 37 °C; n.a. = not active
Procedure: The Ferric Reducing Antioxidant Power (FRAP) test involves reduction of the ferric 2,4,6-tripyridyl-s-triazine complex [Fe(TPTZ)2]^3+ to an intense-blue ferrous complex [Fe(TPTZ)2]^2+ [92], as previously reported. Results are given as Trolox Equivalents (TE).
The FRAP (ferric reducing antioxidant power) assay proposed by Benzie and Strain [92] was modified to be performed in 96-well microplates as described in detail in [53]. The FRAP reagent contained 2.5 mL of 10 mM TPTZ (2,4,6-tris(2-pyridyl)-s-triazine, Sigma-Aldrich) solution in 40 mM HCl, 2.5 mL of 20 mM FeCl3 (Sigma-Aldrich) in distilled water and 25 mL of 0.3 M acetate buffer (pH 3.6). Aliquots of 10 µL of the test compound dissolved in DMSO (0.5 mM) were placed in quadruplicate. Absorbance was measured at a wavelength of 593 nm after 60 min incubation at 37 °C. In each case, Trolox was used as a reference compound to obtain the standard curve. The AO activity was calculated with respect to the activity of Trolox and expressed as Trolox equivalents (TE)—the values calculated as the ratio of the concentrations of Trolox and the test compound resulting in the same effect on ferric reducing activity.

[1] = Metal chelation by UV-Vis spectroscopy, Cu2+; conditions: ethanol, 25 °C; compound and metal 40 μM; difference spectra; two bands per compound
AChE = biological target: T4, AChE (Homo sapiens, UniProt P22303); assay: Kinetic study of AChE inhibition (Lineweaver-Burk); type: biochemical; conditions: for αKi (non-competitive inhibition constant), AChE: mixed-type inhibition, mean ± SEM; for Ki: read-out: Ki (competitive inhibition constant), AChE
T4 construct: human erythrocyte AChE, equine serum BChE, and porcine liver CES were used; purchased Sigma-Aldrich; host or cells: human erythrocytes (tissue-derived)
Procedure: (§3) We assessed the mechanisms of AChE and BChE inhibition by performing a thorough analysis of enzyme kinetics. After a 5 min incubation at 25 °C (for temperature equilibration) with three increasing concentrations of inhibitor and six decreasing substrate concentrations, the residual enzyme activity was measured as described above for enzymatic assays.

eqBChE = biological target: T5, eqBChE (Equus caballus, UniProt P81908); assay: Kinetic study of BChE inhibition (Lineweaver-Burk); type: biochemical; conditions: for αKi (non-competitive inhibition constant), eqBChE: mixed-type inhibition, mean ± SEM; for Ki: read-out: Ki (competitive inhibition constant), eqBChE
T5 construct: human erythrocyte AChE, equine serum BChE, and porcine liver CES were used; purchased Sigma-Aldrich; host or cells: equine serum (tissue-derived)
Procedure: Similar results were obtained for other tested compounds (Figures S61 and S62). The obtained values of inhibition constants (Ki = competitive component and αKi = non-competitive component) are shown in Table 2.
as §3

in vitro = type: cell-based; conditions: mouse
Procedure: […]. Accordingly, in the present work, we paid special attention to the study of the cytotoxic activity of compounds on primary cultures of mouse hepatocytes using standard MTT methodology.
The cytotoxicity of the compounds was evaluated using a primary culture of mouse hepatocytes isolated at the Center for Biotechnology and Bioengineering, Ural Federal University, Ekaterinburg, Russia, according to the standard method. Cells were seeded in 96-well plates in the inoculum dose of 1 × 10^4 cells/mL and cultured for 24 h in Dulbecco’s Modified Eagle Medium (DMEM), with 1% (w/v) glutamine in the presence of 10% (v/v) fetal bovine serum and gentamicin (50 mg/L) at 37 °C, with a humidified atmosphere of 5% (v/v) CO2. Cell viability was assessed using the standard MTT assay. The compounds were dissolved in DMSO and then in a nutrient medium, after which they were added to the wells with cells at final concentrations of 10^−7, 10^−6, 10^−5, and 10^−4 M. Hepatocytes were exposed to test compounds for 24 h at 37 °C, 95% relative humidity and 5% (v/v) CO2 atmosphere. After incubation, the medium was replaced with 100 μL of fresh medium containing MTT (0.5 mg/mL). The plates were then incubated at 37°C in a CO2 incubator for 2 h. Then the medium with MTT was removed and DMSO was added to dissolve the formazan crystals.
The results of the MTT assay were evaluated on a Tecan Infinite M200 PRO (Tecan Austria GmbH, Grödig, Austria) plate spectrophotometer at 570 nm by comparing the optical density of a formazan solution in the assay and control wells. The cell viability was expressed as the percentage of untreated control. The results were obtained from three independent experiments performed in six replicates. The IC50 (μM) values were calculated by the AAT Bioquest-calculator: (https://www.aatbio.com/tools/ic50-calculator, accessed on 1 December 2022) and expressed as a mean ± standard error of the mean (SEM). Statistical analysis was carried out using Microsoft Excel 2007 (Microsoft Corporation, Redmond, WA, USA) and Statistica 2009 (Tulsa, OK, USA) programs.

[2] = ABTS radical cation scavenging assay; parameters: key to ABTS^•+ Scavenging Activity, TEAC: TEAC: ratio of compound slope to Trolox slope (Trolox equivalents); conditions: 1 h incubation
Procedure: In the ABTS assay, the dark-green ABTS cation-radical (ABTS^•+) is quenched by interaction with AOs. The consequent decrease in absorbance is followed spectrophotometrically per the previously described method.
Radical scavenging activity of the compounds was assessed using the ABTS radical cation (ABTS^•+) decolorization assay with some modifications. ABTS (2,2′-azinobis-(3-ethylbenzothiazoline-6-sulfonic acid) was purchased from Tokyo Chemical Industry Co., Ltd. (Tokyo, Japan); potassium persulfate (dipotassium peroxodisulfate), Trolox (6-hydroxy-2,5,7,8-tetramethylchroman-2-carboxylic acid), and HPLC-grade ethanol and DMSO were obtained from Sigma-Aldrich (Saint Louis, MO, USA). Aqueous solutions were prepared using deionized water. All tested compounds were dissolved in DMSO.
The solution of cation radical ABTS^•+ was produced by incubation of an aqueous solution of 7 mM ABTS and 2.45 mM potassium persulfate solution in equal quantities for 12–16 h at room temperature in the dark. Radical scavenging capacity of the compounds was analyzed by mixing 10 μL of compound with 240 μL of ABTS^•+ working solution in ethanol (100 μM final concentration). The reaction was monitored for an hour at 30 °C with an interval of 10 min. Data are given for 1 h of incubation of compounds with ABTS^•+. The reduction in absorbance was measured spectrophotometrically at 734 nm using an xMark microplate UV/VIS spectrophotometer (Bio-Rad, Hercules, CA, USA). Ethanol blanks were run in each assay. Values were obtained from five replicates of each sample and three independent experiments.
The standard AO Trolox was used as a reference compound. AO capacity as Trolox equivalent (TEAC) values was determined as the ratio between the slopes obtained from the linear correlation of the ABTS radical absorbance with the concentrations of tested compounds and Trolox. Ascorbic acid was used as a positive control. […]. The compounds were tested in the concentration range of 0.5–100 µM.

[3] = Aβ42 50 µM, compound 100 µM, 24 h, 37 °C, thioflavin T

T1 sequence (P81908 whole entry): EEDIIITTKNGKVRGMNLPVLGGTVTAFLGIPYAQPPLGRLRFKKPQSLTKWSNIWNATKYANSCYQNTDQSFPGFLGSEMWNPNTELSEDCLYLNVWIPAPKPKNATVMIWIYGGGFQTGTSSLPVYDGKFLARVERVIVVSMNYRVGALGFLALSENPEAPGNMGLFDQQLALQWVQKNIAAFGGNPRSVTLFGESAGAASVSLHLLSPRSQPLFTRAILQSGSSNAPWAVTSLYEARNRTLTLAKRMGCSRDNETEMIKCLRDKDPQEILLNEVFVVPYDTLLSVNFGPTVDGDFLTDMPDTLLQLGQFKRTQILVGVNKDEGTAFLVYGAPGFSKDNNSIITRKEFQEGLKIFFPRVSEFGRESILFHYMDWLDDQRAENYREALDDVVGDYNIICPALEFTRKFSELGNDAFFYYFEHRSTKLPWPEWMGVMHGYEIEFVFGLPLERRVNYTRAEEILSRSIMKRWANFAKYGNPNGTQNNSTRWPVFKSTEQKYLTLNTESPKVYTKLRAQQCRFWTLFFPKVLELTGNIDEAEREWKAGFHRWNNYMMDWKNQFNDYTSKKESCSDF
T5 sequence (P81908 whole entry): as above
T3 sequence (O42275 24-633): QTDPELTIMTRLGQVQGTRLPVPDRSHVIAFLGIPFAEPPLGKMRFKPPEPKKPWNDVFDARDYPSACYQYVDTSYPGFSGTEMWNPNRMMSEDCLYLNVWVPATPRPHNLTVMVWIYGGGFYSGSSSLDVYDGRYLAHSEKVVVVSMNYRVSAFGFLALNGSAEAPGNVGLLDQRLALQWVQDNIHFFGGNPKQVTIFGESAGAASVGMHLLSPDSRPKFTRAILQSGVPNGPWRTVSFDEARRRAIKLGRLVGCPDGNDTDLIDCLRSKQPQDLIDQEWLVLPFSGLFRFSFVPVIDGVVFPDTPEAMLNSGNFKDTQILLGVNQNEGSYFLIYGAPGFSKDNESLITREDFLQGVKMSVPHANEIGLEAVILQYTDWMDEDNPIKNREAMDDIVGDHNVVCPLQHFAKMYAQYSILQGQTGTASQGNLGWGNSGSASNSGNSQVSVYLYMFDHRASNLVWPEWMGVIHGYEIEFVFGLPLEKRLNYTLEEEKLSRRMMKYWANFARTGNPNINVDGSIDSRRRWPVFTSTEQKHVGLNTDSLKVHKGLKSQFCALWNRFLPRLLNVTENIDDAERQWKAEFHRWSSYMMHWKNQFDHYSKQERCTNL
β-amyloid (1–42) (Aβ42), sequence (P05067 672-713 limits assumed): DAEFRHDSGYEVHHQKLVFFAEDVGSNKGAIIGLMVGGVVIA
T4 sequence (P22303 32-617 isoform P22303-2 limits assumed): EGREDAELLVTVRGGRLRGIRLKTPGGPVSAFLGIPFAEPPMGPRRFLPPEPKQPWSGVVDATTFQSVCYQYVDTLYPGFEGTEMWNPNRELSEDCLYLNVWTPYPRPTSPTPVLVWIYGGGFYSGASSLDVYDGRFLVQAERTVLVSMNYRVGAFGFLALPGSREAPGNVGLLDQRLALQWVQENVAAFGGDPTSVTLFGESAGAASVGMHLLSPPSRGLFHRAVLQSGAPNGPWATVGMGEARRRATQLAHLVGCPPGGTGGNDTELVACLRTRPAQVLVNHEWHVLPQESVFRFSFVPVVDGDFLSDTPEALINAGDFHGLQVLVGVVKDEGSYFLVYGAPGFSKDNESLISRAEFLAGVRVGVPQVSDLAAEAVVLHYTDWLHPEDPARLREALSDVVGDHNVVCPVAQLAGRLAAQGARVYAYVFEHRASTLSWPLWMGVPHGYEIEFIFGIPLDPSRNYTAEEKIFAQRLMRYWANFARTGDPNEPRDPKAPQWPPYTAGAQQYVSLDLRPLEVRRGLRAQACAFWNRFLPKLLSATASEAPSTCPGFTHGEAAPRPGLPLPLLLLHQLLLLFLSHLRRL
T2 sequence (P22303 32-617 isoform P22303-2 limits assumed): as above

| Structure (SMILES) | IC50 (equine serum BChE) [nM] | IC50 (human erythrocyte AChE) [nM] | Inhibitory activity against CES, inhibition at 20 µM (porcine liver CES) [%] | Propidium Displacement from EeAChE PAS (EeAChE PAS) [%] | inhibition at 100 µM (β-amyloid (1–42) (Aβ42); [3]) [%] | FRAP, TE (FRAP assay) | Shift of Absorbance, Cu(II) [1] [nm] | αKi (non-competitive inhibition constant), AChE (AChE) [µM] | Ki (AChE) [nM] | αKi (non-competitive inhibition constant), eqBChE (eqBChE) [µM] | Ki (eqBChE) [nM] | IC50 at 24 h (in vitro) [µM] | IC50 ([2]; 50% reduction of ABTS radical cation) [µM] | ABTS^•+ Scavenging Activity, TEAC ([2]; Trolox equivalent, n.a. = not active) | inhibition at 100 µM (β-amyloid (1–42) (Aβ42)) [%] |
| --- | --- | --- | --- | --- | --- | --- | --- | --- | --- | --- | --- | --- | --- | --- | --- |
| COc1ccccc1C(=O)NCCCCCCNc1c2c(nc3ccccc13)CCCC2 [6b] | 37.7 ± 3.1 | 646 ± 41 | 8.0 ± 1.3 | 12.5 ± 0.8 | 30.8 ± 2.1 | 0.02 | 254 |  |  |  |  |  |  |  |  |
| COc1ccccc1C(=O)NCCCCCCCCNc1c2c(nc3ccccc13)CCCC2 [6c] | 47.5 ± 3.2 | 150 ± 11 | 10.6 ± 1.2 | 14.1 ± 0.9 | 55.6 ± 4.4 |  |  | 0.213 ± 0.012 | 104 ± 4 | 0.0314 ± 0.0025 | 18.8 ± 1.1 | 3.81 ± 0.07 |  |  |  |
| COc1cc(F)c(F)cc1C(=O)NCCCCCCNc1c2c(nc3ccccc13)CCCC2 [8b] | 70.2 ± 4.2 | 712 ± 67 | 6.3 ± 0.9 | 13.8 ± 0.9 | 29.7 ± 2.3 | 0.02 |  |  |  |  |  | 3.95 ± 0.22 |  |  |  |
| COc1cc(F)c(F)cc1C(=O)NCCCCCCCCNc1c2c(nc3ccccc13)CCCC2 [8c] | 31.7 ± 2.4 | 142 ± 11 | 19.8 ± 3.1 | 15.1 ± 1.2 | 54.1 ± 4.3 | 0.02 |  | 0.0998 ± 0.0058 | 53.6 ± 2.5 | 0.0187 ± 0.0013 | 17.7 ± 0.7 |  |  |  |  |
| Oc1ccccc1/C=N/CCCCCCNc1c2c(nc3ccccc13)CCCC2 [10b] | 35.4 ± 1.7 | 103 ± 6 | 17.9 ± 0.8 | 18.2 ± 1.4 | 67.9 ± 5.4 | 0.03 | 255 |  |  |  |  |  | 31.8 ± 1.6 | 0.47 ± 0.04 |  |
| Nc1c2c(nc3ccccc13)CCCC2 [Tacrine, reference compound] |  |  |  |  |  |  |  |  |  |  |  | 3.78 ± 0.15 |  |  | 5.9 ± 0.5 |
